Results on 22 compounds are retold here after ChEMBL document CHEMBL4476883, “Hydroxy formamide derivatives and their use” (2017).

Test [1] concerns the target T1, Bone morphogenetic protein 1 (Homo sapiens, UniProt P13497).
T1 sequence (P13497 whole entry): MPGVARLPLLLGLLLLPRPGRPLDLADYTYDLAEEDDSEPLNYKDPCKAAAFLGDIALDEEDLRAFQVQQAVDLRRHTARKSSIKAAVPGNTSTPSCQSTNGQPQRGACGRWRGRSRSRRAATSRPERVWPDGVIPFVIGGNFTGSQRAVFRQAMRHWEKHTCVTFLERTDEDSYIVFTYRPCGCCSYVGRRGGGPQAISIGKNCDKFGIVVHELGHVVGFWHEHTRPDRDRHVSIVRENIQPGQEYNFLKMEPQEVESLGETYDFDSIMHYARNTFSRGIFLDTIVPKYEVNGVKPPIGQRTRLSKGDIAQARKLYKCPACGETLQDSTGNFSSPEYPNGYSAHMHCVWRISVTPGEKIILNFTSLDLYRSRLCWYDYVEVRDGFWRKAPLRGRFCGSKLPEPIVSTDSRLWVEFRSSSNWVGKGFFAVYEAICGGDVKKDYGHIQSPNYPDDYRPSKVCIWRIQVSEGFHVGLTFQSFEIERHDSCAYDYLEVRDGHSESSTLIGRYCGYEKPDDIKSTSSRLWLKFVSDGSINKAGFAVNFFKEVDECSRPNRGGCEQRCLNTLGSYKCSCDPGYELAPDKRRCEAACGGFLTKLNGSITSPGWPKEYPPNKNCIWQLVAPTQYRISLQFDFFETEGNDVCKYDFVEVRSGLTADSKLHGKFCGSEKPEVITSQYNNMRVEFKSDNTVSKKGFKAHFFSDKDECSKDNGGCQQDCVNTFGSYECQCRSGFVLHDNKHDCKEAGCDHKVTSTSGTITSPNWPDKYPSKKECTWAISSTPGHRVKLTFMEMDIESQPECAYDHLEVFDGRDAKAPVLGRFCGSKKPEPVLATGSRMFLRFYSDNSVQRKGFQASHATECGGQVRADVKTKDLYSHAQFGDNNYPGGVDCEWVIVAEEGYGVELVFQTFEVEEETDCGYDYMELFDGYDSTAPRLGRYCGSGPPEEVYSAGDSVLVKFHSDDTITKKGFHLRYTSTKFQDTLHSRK
Kind of test: Inhibition of C-terminal FLAG-6x-His epitope tagged and N-terminal human RAGE signal sequence tagged human BMP1 (23 to 721 amino acids) expressed in CHO-E1A cells pre-incubated for 10 mins before promyostatin peptide substrate addition and measured after 60 mins using 0.5 nM BMP1 by FRET based assay. The class given is cell-based.

Test [2] in a line: Reduction in PICP levels in human cardiac fibroblasts incubated for 24 to 48 hrs by ELISA. The class given is functional. (ELISA stands for enzyme-linked immunosorbent assay.)
In test [3] the target is T1, Bone morphogenetic protein 1. The test is described as follows: Inhibition of C-terminal FLAG-6x-His epitope tagged and N-terminal human RAGE signal sequence tagged human BMP1 (23 to 721 amino acids) expressed in CHO-E1A cells pre-incubated for 10 mins before promyostatin peptide substrate addition and measured after 30 mins using 50 nM BMP1 by FRET based assay. It is filed as cell-based.

For a further test, the target named is T2, Tolloid-like protein 2 (Homo sapiens, UniProt Q9Y6L7).
T2 sequence (Q9Y6L7 whole entry): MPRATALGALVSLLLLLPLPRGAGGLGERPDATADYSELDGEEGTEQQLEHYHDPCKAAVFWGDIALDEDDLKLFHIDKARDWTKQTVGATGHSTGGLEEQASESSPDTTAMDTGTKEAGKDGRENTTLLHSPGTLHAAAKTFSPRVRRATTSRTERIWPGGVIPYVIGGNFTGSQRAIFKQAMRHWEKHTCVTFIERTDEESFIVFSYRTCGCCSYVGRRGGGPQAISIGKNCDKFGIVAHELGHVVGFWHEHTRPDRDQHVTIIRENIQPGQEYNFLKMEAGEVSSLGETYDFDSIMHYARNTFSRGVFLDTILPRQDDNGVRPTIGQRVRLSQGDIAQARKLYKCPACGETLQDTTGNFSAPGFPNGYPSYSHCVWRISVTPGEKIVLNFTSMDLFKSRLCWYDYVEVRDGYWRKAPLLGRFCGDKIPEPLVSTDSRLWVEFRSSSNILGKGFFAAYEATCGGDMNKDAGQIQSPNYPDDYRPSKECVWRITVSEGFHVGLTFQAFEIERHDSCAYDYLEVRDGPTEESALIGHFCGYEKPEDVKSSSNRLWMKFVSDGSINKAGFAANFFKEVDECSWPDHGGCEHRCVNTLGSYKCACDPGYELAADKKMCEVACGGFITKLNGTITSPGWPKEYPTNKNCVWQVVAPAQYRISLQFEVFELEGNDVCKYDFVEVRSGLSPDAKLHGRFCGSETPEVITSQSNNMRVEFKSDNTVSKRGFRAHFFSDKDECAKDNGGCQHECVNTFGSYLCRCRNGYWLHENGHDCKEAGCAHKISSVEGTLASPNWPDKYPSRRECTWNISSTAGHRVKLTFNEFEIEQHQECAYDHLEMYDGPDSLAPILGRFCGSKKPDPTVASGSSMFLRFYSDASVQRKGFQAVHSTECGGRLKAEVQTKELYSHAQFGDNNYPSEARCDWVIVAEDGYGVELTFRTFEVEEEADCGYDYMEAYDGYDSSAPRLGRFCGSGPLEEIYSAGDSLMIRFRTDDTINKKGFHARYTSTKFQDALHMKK
Kind of test: Inhibition of C-terminal Avi-6x-His epitope tagged and N-terminal human RAGE signal sequence tagged recombinant human TLL2 (26 to 1015 amino acids) expressed in CHOE1A cells incubated for 60 mins with promyostatin peptide substrate by FRET based assay. It is filed as cell-based.

The target in the next test is Tolloid-like protein 1 (Homo sapiens, UniProt O43897, I156V/N221S/V284A). Kind of test: Inhibition of recombinant human TLL1 I156V/N221S/V284A mutant expressed in CHOE1A cells pre-incubated for 10 mins before promyostatin peptide substrate addition and measured after 60 mins by FRET based assay. It is filed as cell-based.
Tolloid-like protein 1, sequence (O43897 148-1013 I156V/N221S/V284A limits assumed): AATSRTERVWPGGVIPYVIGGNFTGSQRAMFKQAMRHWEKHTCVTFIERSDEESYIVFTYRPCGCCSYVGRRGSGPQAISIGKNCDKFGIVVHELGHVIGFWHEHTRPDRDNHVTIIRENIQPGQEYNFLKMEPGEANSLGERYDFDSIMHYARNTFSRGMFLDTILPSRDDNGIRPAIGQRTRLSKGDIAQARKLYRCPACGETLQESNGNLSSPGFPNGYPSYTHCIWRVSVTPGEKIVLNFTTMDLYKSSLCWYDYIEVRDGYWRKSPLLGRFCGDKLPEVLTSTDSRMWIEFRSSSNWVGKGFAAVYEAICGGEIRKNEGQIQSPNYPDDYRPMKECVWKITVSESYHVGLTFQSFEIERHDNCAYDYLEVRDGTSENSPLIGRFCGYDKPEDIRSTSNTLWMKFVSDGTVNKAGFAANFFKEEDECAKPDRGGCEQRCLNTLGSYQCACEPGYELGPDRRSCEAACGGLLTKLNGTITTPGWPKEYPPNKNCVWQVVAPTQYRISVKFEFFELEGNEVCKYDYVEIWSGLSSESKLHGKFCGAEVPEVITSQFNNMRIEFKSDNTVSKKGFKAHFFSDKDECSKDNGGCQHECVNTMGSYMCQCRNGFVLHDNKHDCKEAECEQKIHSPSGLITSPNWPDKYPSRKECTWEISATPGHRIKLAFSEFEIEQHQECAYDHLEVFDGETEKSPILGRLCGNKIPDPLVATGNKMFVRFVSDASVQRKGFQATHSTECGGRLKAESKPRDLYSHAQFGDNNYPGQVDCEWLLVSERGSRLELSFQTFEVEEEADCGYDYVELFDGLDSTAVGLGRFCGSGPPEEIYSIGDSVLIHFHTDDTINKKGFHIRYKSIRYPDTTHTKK

Some results are limits rather than exact numbers.

As a reminder, the IC50 is the concentration needed to halve the response being measured. On to `CCCCC[C@H](CN(O)C=O)C(=O)NCNC(=O)c1cncc(-c2ccccc2)n1`, for which the IC50 in test [1] is under 126 nM; in test [2], under 20000 nM; in test [3] it was under 251 nM; at Tolloid-like protein 2, under 631 nM; on Tolloid-like protein 1 it was under 398 nM.

Regarding `CCCCC[C@@H](C(=O)NCNC(=O)c1cccc(-c2cccc(OC)c2F)c1F)[C@@H](CC)N(O)C=O`, the IC50 in test [1] is under 126 nM; in test [2] it was under 20000 nM; in test [3] it was under 251 nM; at Tolloid-like protein 2, under 631 nM; at Tolloid-like protein 1, under 398 nM.

For `COc1ccccc1-c1cccc(C(=O)NCNC(=O)[C@H](CC2CCCC2)CN(O)C=O)c1`, the half-maximal inhibitory concentration (IC50) in test [1] is under 126 nM; in test [2], under 20000 nM; in test [3], under 251 nM; at Tolloid-like protein 2 it was under 631 nM; on Tolloid-like protein 1 it was under 398 nM.

With `CCCCC[C@H](CN(O)C=O)C(=O)NCNC(=O)c1cccc(Oc2ccc(OC)nc2)c1`, the concentration for half-maximal inhibition (IC50) was under 126 nM in test [1]; under 20000 nM in test [2]; under 251 nM in test [3]; under 631 nM at Tolloid-like protein 2; under 398 nM on Tolloid-like protein 1.

In the case of `CCCCC[C@@H](C(=O)NCNC(=O)c1cccc(-c2cc(OCC(=O)O)cc(C(=O)O)c2)n1)[C@@H](CC)N(O)C=O`, the concentration for half-maximal inhibition (IC50) was under 126 nM in test [1]; under 20000 nM in test [2]; under 251 nM in test [3]; under 631 nM at Tolloid-like protein 2; under 398 nM at Tolloid-like protein 1.

With `CCCCC[C@@H](C(=O)NCNC(=O)c1cccc(-c2cc(OCC)cc(C(=O)N[C@@H](CC(=O)O)C(=O)O)c2)n1)[C@@H](CC)N(O)C=O`, the IC50 in test [1] was under 126 nM; in test [2], under 20000 nM; in test [3], under 251 nM; on Tolloid-like protein 2, under 631 nM; at Tolloid-like protein 1, under 398 nM.

Regarding `CCCCC[C@H](CN(O)C=O)C(=O)NCNC(=O)c1cccc(-c2cccc(C(N)=O)c2)c1`, the IC50 in test [1] was under 126 nM; in test [2], under 20000 nM; in test [3], under 251 nM; on Tolloid-like protein 2, under 631 nM; at Tolloid-like protein 1 it was under 398 nM.

Regarding `CCCCC[C@@H](C(=O)NCNC(=O)c1cccc(-c2ccc(C(=O)N[C@H](CC(=O)O)C(=O)O)cc2)n1)[C@@H](CC)N(O)C=O`, the IC50 in test [1] is under 126 nM; in test [2] it was under 20000 nM; in test [3] it was under 251 nM; at Tolloid-like protein 2, under 631 nM; on Tolloid-like protein 1 it was under 398 nM.

As for `CCCCC[C@H](CN(O)C=O)C(=O)NCNC(=O)c1cccc(-c2cccc(OC)n2)n1`, the IC50 in test [1] is under 126 nM; in test [2], under 20000 nM; in test [3] it was under 251 nM; at Tolloid-like protein 2, under 631 nM; on Tolloid-like protein 1, under 398 nM.

Turning to `CCCCC[C@H](CN(O)C=O)C(=O)NCNC(=O)c1cccc(-c2ccnc(OC)n2)c1`, the IC50 in test [1] was under 126 nM; in test [2] it was under 20000 nM; in test [3], under 251 nM; on Tolloid-like protein 2 it was under 631 nM; at Tolloid-like protein 1, under 398 nM.

Turning to `CCCCC[C@H](CN(O)C=O)C(=O)NCNC(=O)c1cccc(-c2ccc(F)c(OC)c2)c1`, the IC50 is under 126 nM in test [1]; under 20000 nM in test [2]; under 251 nM in test [3]; under 631 nM on Tolloid-like protein 2; under 398 nM on Tolloid-like protein 1.

As for `CCCCC[C@H](CN(O)C=O)C(=O)NCNC(=O)c1cccc(-c2cccc(NS(C)(=O)=O)c2)c1`, the IC50 in test [1] was under 126 nM; in test [2], under 20000 nM; in test [3], under 251 nM; at Tolloid-like protein 2, under 631 nM; on Tolloid-like protein 1, under 398 nM.

Turning to `CCCCC[C@H](CN(O)C=O)C(=O)NCNC(=O)c1cccc(-c2cccc(OC(C)C)c2)c1`, the concentration for half-maximal inhibition (IC50) in test [1] was under 126 nM; in test [2] it was under 20000 nM; in test [3], under 251 nM; on Tolloid-like protein 2, under 631 nM; at Tolloid-like protein 1, under 398 nM.

On to `COc1cccc(-c2cccc(C(=O)NCNC(=O)[C@H](CC3CCCC3)CN(O)C=O)c2)c1`, for which the half-maximal inhibitory concentration (IC50) was under 126 nM in test [1]; under 20000 nM in test [2]; under 251 nM in test [3]; under 631 nM on Tolloid-like protein 2; under 398 nM on Tolloid-like protein 1.

Consider `O=CN(O)C[C@@H](CCc1ccccc1)C(=O)NCNC(=O)c1cccc(-c2ccccc2)n1`, for which the 50% inhibitory concentration (IC50) was under 126 nM in test [1]; under 20000 nM in test [2]; under 251 nM in test [3]; under 631 nM at Tolloid-like protein 2; under 398 nM at Tolloid-like protein 1.

As for `CCCCC[C@H](CN(O)C=O)C(=O)NCNC(=O)c1cccc(-c2cccc(N(C)C)c2)c1`, the IC50 was under 126 nM in test [1]; under 20000 nM in test [2]; under 251 nM in test [3]; under 631 nM at Tolloid-like protein 2; under 398 nM at Tolloid-like protein 1.

For `CCCCC[C@@H](C(=O)NCNC(=O)c1cccc(-c2cc(OCC)cc(C(=O)O)c2)c1)[C@@H](CC)N(O)C=O`, the IC50 in test [1] is under 126 nM; in test [2] it was under 20000 nM; in test [3], under 251 nM; at Tolloid-like protein 2 it was under 631 nM; at Tolloid-like protein 1, under 398 nM.

Consider `CCCCC[C@@H](C(=O)NCNC(=O)c1cccc(-c2cc(O)cc(P(=O)(O)O)c2)n1)[C@@H](CC)N(O)C=O`, for which the concentration for half-maximal inhibition (IC50) is under 126 nM in test [1]; under 20000 nM in test [2]; under 251 nM in test [3]; under 631 nM at Tolloid-like protein 2; under 398 nM at Tolloid-like protein 1.

Turning to `O=CN(O)C[C@@H](CC1CCCC1)C(=O)NCNC(=O)c1cccc(-c2cccc(C(F)(F)F)c2)c1`, the 50% inhibitory concentration (IC50) in test [1] was under 126 nM; in test [2], under 20000 nM; in test [3], under 251 nM; on Tolloid-like protein 2 it was under 631 nM; at Tolloid-like protein 1, under 398 nM.

Turning to `O=CN(O)C[C@@H](CC1CCCC1)C(=O)NCNC(=O)c1cccc(-c2cccc(OC(F)(F)F)c2)c1`, the IC50 in test [1] is under 126 nM; in test [2], under 20000 nM; in test [3], under 251 nM; on Tolloid-like protein 2, under 631 nM; at Tolloid-like protein 1, under 398 nM.

Regarding `CCCCC[C@H](CN(O)C=O)C(=O)NCNC(=O)c1cccc(-c2cccc(C(=O)O)c2)c1`, the IC50 in test [1] is under 126 nM; in test [2] it was under 20000 nM; in test [3], under 251 nM; on Tolloid-like protein 2 it was under 631 nM; on Tolloid-like protein 1 it was under 398 nM.

`CCCCC[C@@H](C(=O)NCNC(=O)c1cccc(-c2cccc(S)c2)c1)[C@@H](CC)N(O)C=O`: the IC50 in test [1] was under 126 nM; in test [2], under 20000 nM; in test [3], under 251 nM; at Tolloid-like protein 2, under 631 nM; on Tolloid-like protein 1, under 398 nM.
